Experimental data: ChEMBL document CHEMBL1144124, “New cytotoxic 1-azaanthraquinones and 3-aminonaphthoquinone from the stem bark of Goniothalamus marcanii” (1999)

How the values were obtained:
Type in all cases: functional
A549 = assay: Cytotoxicity against human A549 cells after 48 hrs by SRB assay; conditions: A549, 48 h, read-out: ED50 (the source's name)
MCF7 = assay: Cytotoxicity against human MCF7 cells after 48 hrs by SRB assay; conditions: MCF7, 48 h, read-out: ED50 (the source's name)
[1] = Cytotoxicity against human RPMI cells after 48 hrs by SRB assay; conditions: read-out: ED50 (the source's name)
HT-29 = assay: Cytotoxicity against human HT-29 cells after 48 hrs by SRB assay; conditions: HT-29, 48 h, read-out: ED50 (the source's name)
U-251 = assay: Cytotoxicity against human U251 cells after 48 hrs by SRB assay; conditions: U-251, 48 h, read-out: ED50 (the source's name)

Row | Compound | EC50 (A549) [nM] | EC50 (MCF7) [nM] | EC50 [1] [nM] | EC50 (HT-29) [nM] | EC50 (U-251) [nM]
1 | COc1c(CO)c2c(n(C)c1=O)C(=O)c1ccccc1C2=O [MARCANINE C] | 1000 | 1000 | 670 | 330 | –
2 | Cc1cc(=O)[nH]c2c1C(=O)c1ccccc1C2=O [MARCANIN A] | 420 | 420 | 420 | 420 | 840
3 | COc1c(C)c2c([nH]c1=O)C(=O)c1ccccc1C2=O [DIELSIQUINONE] | 110 | 110 | 110 | 1120 | 370
4 | COc1c(C)c2c(n(C)c1=O)C(=O)c1ccccc1C2=O [MARCANIN B] | 350 | 180 | 700 | 2120 | 1400
5 | COc1c(C)c2c([nH]c1=O)C(=O)c1cccc(O)c1C2=O [MARCANINE D] | 40 | 80 | 80 | 350 | 280
6 | CC(=O)C1=C(N)C(=O)c2c(O)cccc2C1=O | 2600 | 2600 | 3030 | – | 3030
